Read-outs that look alike come from different tables or passages of the source.
Legend:
[1] = system: Leishmania tarentolae promastigotes (LtP); assay: Resazurin viability assay in Leishmania tarentolae promastigotes; assay type: cell-based
Description: Leishmania tarentolae promastigotes (LtP) strain P10 from Jena Bioscience (Jena, Germany) were cultivated in brain heart infusion (BHI) medium (37 g/L) that was supplemented with 5 mg/L hemin, 25,000 U/L penicillin and 25 mg/L streptomycin at 26 °C. LtP were always used one day after being passaged, when the cells were in the logarithmic growth phase. The cell count was determined by measuring the optical density (OD) at a wavelength of 600 nm using a U1100 photometer (Hitachi, Tokyo, Japan). The number of the cells was subsequently calculated according to a calibration curve.
LtP (2 × 10^6 cells/mL) in a mixture of YEM and PBS (1:1, v/v) containing 25,000 U/L penicillin, 25 mg/L streptomycin, and 6 µM hemin (YEM/PBS) were prepared. Aliquots of 200 µL of this suspension were distributed in 96-well plates. Control rows containing YEM/PBS (no activity) and with untreated LtP (100% activity) were also loaded on the plate. To the wells of third rows, compounds (leading to a final vehicle concentration of max. 2% dimethyl sulfoxide (DMSO) in the wells) were added. Subsequently, five 1:5 serial dilution steps were performed. The plates were incubated at 26 °C for 48 h. Following the incubation, 50 µL of a resazurin solution in PBS were added to each well, giving a final concentration of 20 µM. After 4 h of incubation, the fluorescence was measured at 560 nm excitation and 590 nm emission using a plate reader (Perkin Elmer Enspire, Germany). The resazurin assays with J774 cells were performed in analogy to the LtP resazurin assays. Aliquots of a J774 cell suspension in DMEM supplemented with 25,000 U/L penicillin, 25 mg/L streptomycin, and 10% FCS (heat-inactivated), giving a final cell concentration of 10^5 cells/mL, were distributed in the wells of the 96-well microplates. The cells were incubated for 24 h (37 °C, 5% CO2) to allow attachment. Then the medium was discarded and non-adherent cells were removed with 200 µL PBS per well. After the addition of DMEM, the compounds were added, and a serial dilution was performed. Control rows with DMEM (no activity) and with untreated J774 cells (100% activity) were also included. The plates were incubated again for 24 h at 37 °C and 5% CO2. Then the addition of resazurin and the measurement of fluorescence were carried out in analogy to the viability assays performed in LtP.
Calculations were carried out using Microsoft Excel (Microsoft). The graphs were created using Origin 6.1 (OriginLab Corporation, Northampton, MA, USA). The half maximal inhibitory concentrations (IC50) were determined from non-linear concentration–response curves using a four-parameter logistic model and expressed as the mean ± standard deviation (SD). Statistically significant differences of p <0.05 were identified using Students t-test.

LtP = assay: EPR (CMH oxidation): superoxide formation in LtP; assay type: cell-based, Leishmania tarentolae; details: 20 µM AA or 100 µM other compounds, 500 × 10^6 LtP/mL, 400 µM CMH, DFO, DTPA, 5 min, 25 °C
Description: To measure superoxide radical (O2^•−) formation induced by AcEPs in LtP, EPR spectroscopy was used. An aliquot of the cell broth was transferred into an Eppendorf tube that was centrifuged (Hettich Universal 16, 20 °C, 2000× g, 10 min). The supernatant was discarded, the cell pellet was resuspended in PBS and centrifuged again. After removal of the supernatant, the cell pellet was resuspended in a mixture of PBS, 15 mM glucose (PBS/Glu), DFO (100 µM), and DTPA (25 µM). […] The cell suspension was aliquoted. CMH was added as detection agent leading to a final concentration of 400 µM. After 5 min of incubation at 25 °C, the respective substance was added resulting in final concentrations of 20 µM antimycin A (AA) or 100 µM of AcEP1117, AcEP1118, AcEP1129, AcEP1130, Ac, and AQ. Samples containing LtP and CMH were used as negative control. Samples containing PBS/Glu and CMH were used as negative control as well. After 5 min of incubation at 25 °C with the respective substance, aliquots of 17 µL of the cell suspensions were aspirated into a PTFE tube (outer diameter 0.7 mm). The tube was transferred into the MD5 resonator of the EPR spectrometer. Immediately, the measurement was started using the following parameters: microwave frequency 9.684 GHz; microwave power 20 mW, modulation frequency 100 kHz; modulation amplitude 1 G; time constant 0.82 s; center field 3449 G; scan rate 14 G/min; sweep width 100 G; scan time 419 s; attenuation 2.52 × 10^4; and scans 5.

[2] = Leishmania tarentolae, 48 h, resazurin assay, endpoint at 48 h, 2 × 10^6 LtP/mL, read-out: IC50 (µM) Mean ± SD LtP

CC12OOC(C)(c3ccccc31)c1ccccc12 [AcEP1118, 9,10-dimethyl-9,10-dihydro-9,10-epidioxidoanthracene]
IC50 [1, 2]: 1 ± 0.73 µM | CMH oxidation (superoxide radical formation) in LtP (LtP): failed to cause any enhanced oxidation of CMH

c1ccc2c(c1)C1OOC2c2ccccc21 [AcEP1117, 9,10-dihydro-9,10-epidioxidoanthracene]
IC50 [1, 2]: 5.72 ± 1.92 µM | CMH oxidation (superoxide radical formation) in LtP (LtP): failed to cause any enhanced oxidation of CMH

O=C1c2ccccc2C(=O)c2ccccc21 [AQ, anthraquinone, reference compound]
IC50 [1, 2]: 103 ± 17.8 µM | CMH oxidation (superoxide radical formation) in LtP (LtP): did not trigger additional CMH oxidation in LtP

N=C(N)c1ccc(OCCCCCOc2ccc(C(=N)N)cc2)cc1 [Pen, pentamidine, reference compound]
IC50 [1, 2]: < 1 µM | IC50 ([1]; resazurin assay, endpoint at 48 h, 2 × 10^6 LtP/mL, read-out: IC50 (µM) Mean ± SD LtP): 0.84 ± 0.43 µM

CC12OOC(c3ccccc31)c1ccccc12 [AcEP1129, 9-methyl-9,10-dihydro-9,10-epidioxidoanthracene]
IC50 [1, 2]: 0.61 ± 0.21 µM | CMH oxidation (superoxide radical formation) in LtP (LtP): an increased CMH oxidation rate occurred

c1ccc2cc3ccccc3cc2c1 [Ac, anthracene]
IC50 ([1]; Leishmania tarentolae, 48 h, read-out: IC50 (µM) Mean ± SD LtP, resazurin assay, endpoint at 48 h, 2 × 10^6 LtP/mL): > 400 µM | CMH oxidation (superoxide radical formation) in LtP (LtP): did not trigger additional CMH oxidation in LtP

CCc1ccc2c(c1)C1OOC2c2ccccc21 (centres unmarked) [AcEP1130, 2-ethyl-9,10-dihydro-9,10-epidioxidoanthracene]
IC50 [1, 2]: 0.22 ± 0.09 µM | CMH oxidation (superoxide radical formation) in LtP (LtP): an increased CMH oxidation rate occurred

Reference: PMC6100073, “Activation of Anthracene Endoperoxides in Leishmania and Impairment of Mitochondrial Functions” (Molecules : A Journal of Synthetic Chemistry and Natural …, 2018)
